Laboratory results: patent US20240122182A1, “PESTICIDALLY ACTIVE HETEROCYCLIC DERIVATIVES WITH SULFUR CONTAINING SUBSTITUENTS” (SYNGENTA CROP PROTECTION AG, priority 2021, published 2024)

Assays:
Format in all cases: in vivo
[1] = tested on: Plutella xylostella (Diamond Back Moth); assay: Activity against Plutella xylostella (diamond back moth), artificial diet; settings: 192 h, application rate of 200 ppm, eggs, 8 days after infestation, read-out: effect in at least one of the two categories (mortality or growth inhibition)
Method: 24-well microtiter plates with artificial diet were treated with aqueous test solutions prepared from 10′000 ppm DMSO stock solutions by pipetting. After drying, Plutella eggs were pipetted through a plastic stencil onto a gel blotting paper and the plate was closed with it. The samples were assessed for mortality and growth inhibition in comparison to untreated samples 8 days after infestation.

[2] = tested on: Euschistus heros (Neotropical Brown Stink Bug); assay: Activity against Euschistus heros (neotropical brown stink bug), soybean leaves sprayed; settings: 120 h, application rate of 200 ppm, N2 nymphs, 5 days after infestation, read-out: effect in at least one of the two categories (mortality or growth inhibition)
Method: Soybean leaves on agar in 24-well microtiter plates were sprayed with aqueous test solutions prepared from 10′000 ppm DMSO stock solutions. After drying the leaves were infested with N2 nymphs. The samples were assessed for mortality and growth inhibition in comparison to untreated samples 5 days after infestation.

[3] = tested on: Diabrotica Balteata (Corn Root Worm); assay: Activity against Diabrotica balteata (corn root worm), maize sprouts sprayed; settings: 96 h, application rate of 200 ppm, L2 larvae, 4 days after infestation, read-out: effect in at least one of the two categories (mortality or growth inhibition)
Method: Maize sprouts placed onto an agar layer in 24-well microtiter plates were treated with aqueous test solutions prepared from 10′000 ppm DMSO stock solutions by spraying. After drying, the plates were infested with L2 larvae (6 to 10 per well). The samples were assessed for mortality and growth inhibition in comparison to untreated samples 4 days after infestation.

[4] = tested on: Carpocapsa (Cydia) Pomonella (Codling Moth); assay: Activity against Carpocapsa (Cydia) pomonella (codling moth), larvicide, feeding/contact; settings: 336 h, application rate of 12.5 ppm, L1 larvae, 14 days after infestation, read-out: effect in at least one of the two categories (mortality or growth inhibition)
Method: Diet cubes coated with paraffin were sprayed with diluted test solutions in an application chamber. After drying off the treated cubes (10 replicates) were infested with 1 L1 larvae. Samples were incubated at 26-27° C. and checked 14 days after infestation for mortality and growth inhibition. The following compounds gave an effect of at least 80% in at least one of the two categories (mortality or growth inhibition) at an application rate of 12.5 ppm: P1, P2, P3, P5, P9, P10, P11, P12, P14, P17, P19, P20, P21, P23, P24, P30, P31.

[5] = tested on: Spodoptera littoralis (Egyptian Cotton Leaf Worm); assay: Activity against Spodoptera littoralis (Egyptian cotton leaf worm), cotton leaf discs sprayed; settings: foliar, 72 h, application rate of 200 ppm, L1 larvae, 3 days after infestation, read-out: control (mortality, anti-feeding effect, growth inhibition)
Method: Cotton leaf discs were placed onto agar in 24-well microtiter plates and sprayed with aqueous test solutions prepared from 10′000 ppm DMSO stock solutions. After drying the leaf discs were infested with five L1 larvae. The samples were assessed for mortality, anti-feeding effect, and growth inhibition in comparison to untreated samples 3 days after infestation. Control of Spodoptera littoralis by a test sample is given when at least one of the categories mortality, anti-feedant effect, and growth inhibition is higher than the untreated sample.

[6] = tested on: Chilo suppressalis (Striped Rice Stemborer); assay: Activity against Chilo suppressalis (striped rice stemborer), artificial diet; settings: 144 h, application rate of 200 ppm, L2 larvae, 6 days after infestation, read-out: control (mortality, anti-feeding effect, growth inhibition)
Method: 24-well microtiter plates with artificial diet were treated with aqueous test solutions prepared from 10′000 ppm DMSO stock solutions by pipetting. After drying, the plates were infested with L2 larvae (6-8 per well). The samples were assessed for mortality, anti-feeding effect, and growth inhibition in comparison to untreated samples 6 days after infestation. Control of Chilo suppressalis by a test sample is given when at least one of the categories mortality, anti-feedant effect, and growth inhibition is higher than the untreated sample.

[7] = tested on: Myzus persicae (Green Peach Aphid); assay: Activity against Myzus persicae (green peach aphid), feeding/contact activity; settings: 144 h, application rate of 200 ppm, mixed ages, 6 days after infestation
Method: Sunflower leaf discs were placed onto agar in a 24-well microtiter plate and sprayed with aqueous test solutions prepared from 10′000 ppm DMSO stock solutions. After drying, the leaf discs were infested with an aphid population of mixed ages. The samples were assessed for mortality 6 days after infestation.

CCS(=O)(=O)c1cc(-n2ccc(Cl)n2)cnc1-c1cc2c(cn1)N(CC(F)(F)C(F)(F)F)C(=O)CC2 [P5, 6-[5-(3-chloropyrazol-1-yl)-3-ethylsulfonyl-2-pyridyl]-1-(2,2,3,3,3-pentafluoropropyl)-3,4-dihydro-1,7-naphthyridin-2-one]
≥ 80%: percent effect (mortality or growth inhibition) at 200 ppm [1] | percent effect (mortality or growth inhibition) at 200 ppm [2] | percent effect (mortality or growth inhibition) at 200 ppm [3] | percent effect (mortality or growth inhibition) at 12.5 ppm [4] | mortality at 200 ppm [5] | mortality at 200 ppm [6]

CCSc1cc(C2(C#N)CC2)cnc1-c1cc2c(cn1)N(CC(F)(F)F)C(=O)CC2 [P6, 1-[5-ethylsulfanyl-6-[2-oxo-1-(2,2,2-trifluoroethyl)-3,4-dihydro-1,7-naphthyridin-6-yl]-3-pyridyl]cyclopropanecarbonitrile]
≥ 80%: percent effect (mortality or growth inhibition) at 200 ppm [1] | percent effect (mortality or growth inhibition) at 200 ppm [2] | percent effect (mortality or growth inhibition) at 200 ppm [3] | mortality at 200 ppm [5] | mortality at 200 ppm [6]

CCSc1cc(N(C)C(C)=O)cnc1-c1cc2c(cn1)N(CC(F)(F)C(F)(F)F)C(=O)CC2 [P7, N-[5-ethylsulfanyl-6-[2-oxo-1-(2,2,3,3,3-pentafluoropropyl)-3,4-dihydro-1,7-naphthyridin-6-yl]-3-pyridyl]-N-methyl-acetamide]
≥ 80%: mortality at 200 ppm [7]

CCS(=O)(=O)c1ccc(-n2cncn2)nc1-c1cc2c(cn1)N(CC(F)(F)C(F)(F)F)C(=O)CC2 [P13, 6-[3-ethylsulfonyl-6-(1,2,4-triazol-1-yl)-2-pyridyl]-1-(2,2,3,3,3-pentafluoropropyl)-3,4-dihydro-1,7-naphthyridin-2-one]
≥ 80%: mortality at 200 ppm [7] | percent effect (mortality or growth inhibition) at 200 ppm [1] | percent effect (mortality or growth inhibition) at 200 ppm [3] | mortality at 200 ppm [5] | mortality at 200 ppm [6]

CCS(=O)(=O)c1ccc(-n2cncn2)nc1-c1cc2c(cn1)N(CC(F)(F)C(F)(F)F)C(=O)OC2 [P16, 6-[3-ethylsulfonyl-6-(1,2,4-triazol-1-yl)-2-pyridyl]-1-(2,2,3,3,3-pentafluoropropyl)-4H-pyrido[3,4-d][1,3]oxazin-2-one]
≥ 80%: mortality at 200 ppm [7] | percent effect (mortality or growth inhibition) at 200 ppm [1] | percent effect (mortality or growth inhibition) at 200 ppm [3] | mortality at 200 ppm [5] | mortality at 200 ppm [6]

CCS(=O)(=O)c1cc(Oc2ccccn2)cnc1-c1cc2c(cn1)N(CC(F)(F)C(F)(F)F)C(=O)CC2 [P21, 6-[3-ethylsulfonyl-5-(2-pyridyloxy)-2-pyridyl]-1-(2,2,3,3,3-pentafluoropropyl)-3,4-dihydro-1,7-naphthyridin-2-one]
≥ 80%: percent effect (mortality or growth inhibition) at 200 ppm [1] | percent effect (mortality or growth inhibition) at 200 ppm [2] | percent effect (mortality or growth inhibition) at 200 ppm [3] | percent effect (mortality or growth inhibition) at 12.5 ppm [4] | mortality at 200 ppm [5] | mortality at 200 ppm [6]

CCSc1cc(OCC(C)(F)F)cnc1-c1cc2c(cn1)N(CC(F)(F)C(F)(F)F)C(=O)CC2 [P25, 6-[5-(2,2-difluoropropoxy)-3-ethylsulfanyl-2-pyridyl]-1-(2,2,3,3,3-pentafluoropropyl)-3,4-dihydro-1,7-naphthyridin-2-one]
≥ 80%: percent effect (mortality or growth inhibition) at 200 ppm [1] | percent effect (mortality or growth inhibition) at 200 ppm [3] | mortality at 200 ppm [5] | mortality at 200 ppm [6]

CCSc1cc(C(F)(F)F)cnc1-c1cc2c(cn1)N(CC(F)(F)C(F)(F)F)C(=O)OC2 [P26, 6-[3-ethylsulfanyl-5-(trifluoromethyl)-2-pyridyl]-1-(2,2,3,3,3-pentafluoropropyl)-4H-pyrido[3,4-d][1,3]oxazin-2-one]
≥ 80%: percent effect (mortality or growth inhibition) at 200 ppm [1] | percent effect (mortality or growth inhibition) at 200 ppm [3] | mortality at 200 ppm [6]

CCSc1cc(OCC(C)(F)F)cnc1-c1cc2c(cn1)N(CC(F)(F)C(F)(F)F)C(=O)OC2 [P27, 6-[5-(2,2-difluoropropoxy)-3-ethylsulfanyl-2-pyridyl]-1-(2,2,3,3,3-pentafluoropropyl)-4H-pyrido[3,4-d][1,3]oxazin-2-one]
≥ 80%: percent effect (mortality or growth inhibition) at 200 ppm [1] | percent effect (mortality or growth inhibition) at 200 ppm [2] | percent effect (mortality or growth inhibition) at 200 ppm [3] | mortality at 200 ppm [5] | mortality at 200 ppm [6]

CCSc1cc(NC)cnc1-c1cc2c(cn1)N(CC(F)(F)C(F)(F)F)C(=O)OC2 [P28, 6-[3-ethylsulfanyl-5-(methylamino)-2-pyridyl]-1-(2,2,3,3,3-pentafluoropropyl)-4H-pyrido[3,4-d][1,3]oxazin-2-one]
≥ 80%: percent effect (mortality or growth inhibition) at 200 ppm [1]

CCSc1cc(N(C)C(C)=O)cnc1-c1cc2c(cn1)N(CC(F)(F)C(F)(F)F)C(=O)OC2 [P29, N-[5-ethylsulfanyl-6-[2-oxo-1-(2,2,3,3,3-pentafluoropropyl)-4H-pyrido[3,4-d][1,3]oxazin-6-yl]-3-pyridyl]-N-methyl-acetamide]
≥ 80%: mortality at 200 ppm [7] | percent effect (mortality or growth inhibition) at 200 ppm [1] | mortality at 200 ppm [5] | mortality at 200 ppm [6]

CC[S+]([O-])c1cc(OCC(C)(F)F)cnc1-c1cc2c(cn1)N(CC(F)(F)C(F)(F)F)C(=O)OC2 (centres unmarked) [P32, 6-[5-(2,2-difluoropropoxy)-3-ethylsulfinyl-2-pyridyl]-1-(2,2,3,3,3-pentafluoropropyl)-4H-pyrido[3,4-d][1,3]oxazin-2-one]
≥ 80%: percent effect (mortality or growth inhibition) at 200 ppm [1] | percent effect (mortality or growth inhibition) at 200 ppm [3] | mortality at 200 ppm [5]

CCSc1cc(C(C)(C)C#N)cnc1-c1cc2c(cn1)N(CC(F)(F)C(F)(F)F)C(=O)OC2 [P33, 2-[5-ethylsulfanyl-6-[2-oxo-1-(2,2,3,3,3-pentafluoropropyl)-4H-pyrido[3,4-d][1,3]oxazin-6-yl]-3-pyridyl]-2-methyl-propanenitrile]
≥ 80%: percent effect (mortality or growth inhibition) at 200 ppm [2] | percent effect (mortality or growth inhibition) at 200 ppm [3] | mortality at 200 ppm [6]

CCSc1cc(C2(C#N)CC2)cnc1-c1cc2c(cn1)N(CC(F)(F)F)C(=O)OC2 [P35, 1-[5-ethylsulfanyl-6-[2-oxo-1-(2,2,2-trifluoroethyl)-4H-pyrido[3,4-d][1,3]oxazin-6-yl]-3-pyridyl]cyclopropanecarbonitrile]
≥ 80%: percent effect (mortality or growth inhibition) at 200 ppm [1] | percent effect (mortality or growth inhibition) at 200 ppm [3]
